“And” between values parts separate entries of the source, which are not always exact repeats. Equal entries are not always repeated.
Experiments:
Mus musculus = conditions: oral
Rattus norvegicus [1] = test system: Rattus norvegicus
Rattus norvegicus [2] = conditions: short-term, duration: 28 days, oral, gavage, F, Sprague-Dawley
[3] = developmental, duration: 17 days, gavage, F, CD1, Developmental: Delayed postnatal development [eye opening, preputial separation and vaginal opening] and decreased body weight gain …
[4] = developmental, duration: 18 days, gavage, F, Developmental: Decreased number of live births (36 and 31%) and pup survival at 1.1 and 2.0 mg/kg/day, but not […] / decreased number of …
[5] = short-term, duration: 14 days, gavage, M, BALB/c, Body Weight: ~25% decrease in body weight + Hepatic: Increases in liver weight (~160%) and increases in hepatic triglyceride (~66%) and …
[6] = subchronic, duration: 90 days, gavage, M, Reproductive: Decreased sperm motility, viability, and number / degenerative changes in seminiferous tubules / decreased litter size
[7] = short-term, duration: 14 days, oral, gavage, M, Sprague-Dawley, Body Weight: Decreases in body weight at 3 and 5 mg/kg/day (18 and 39%)
[8] = short-term, duration: 14 days, oral, gavage, M, Sprague-Dawley, Immunotoxicological: Decreased relative spleen weight and increases in cytokine levels
[9] = short-term, duration: 14 days, oral, gavage, M, Sprague-Dawley, Other Noncancer (Glucose: Increased serum glucose levels (1.11-fold at 1 mg/kg/day and 1.16-fold at 5 mg/kg/day)
[10] = short-term, duration: 14 days, oral, gavage, M, Sprague-Dawley, Reproductive: 85.4% decrease in serum testosterone and […] increase in estradiol levels at 5 mg/kg/day / atrophy of seminiferous tubule …
[11] = short-term, duration: 14 days, oral, gavage, M, Sprague-Dawley, Reproductive: Large vacuoles between testicular Sertoli cells and spermatogonia

For `O=C(O)C(F)(F)C(F)(F)C(F)(F)C(F)(F)C(F)(F)C(F)(F)C(F)(F)C(F)(F)F` [Perfluorononanoic acid], the NOAEL (Mus musculus; developmental, duration: 16 days, gavage, M/F, CD1, developmental) was 1 mg/kg-day, the LOAEL (Mus musculus; [3]) was 3 mg/kg-day and 5 mg/kg-day and the NOAEL (Mus musculus; [3]) was 1 mg/kg-day. For the same compound, the NOAEL (Mus musculus; developmental, duration: 18 days, gavage, F, Body Weight: No alterations in maternal body weight or gestational weight gain + Developmental: No alterations in the number of live pups …) was 2 mg/kg-day, the LOAEL (Mus musculus; [4]) was 1.1 mg/kg-day and the NOAEL (Mus musculus; [4]) was 0.83 mg/kg-day. For the same compound, the LOAEL (Mus musculus; reproduction developmental, duration: 17 days, gavage, F, CD1, Body Weight: 43% maternal weight loss at GD 13) was 10 mg/kg-day, the NOAEL (Mus musculus; reproduction developmental, duration: 17 days, gavage, F, CD1, Hepatic: Increases in absolute and relative liver weights in dams on GD 17 and on post-weaning day 28 at ?1 mg/kg/day) was 10 mg/kg-day and the NOAEL (Mus musculus; reproduction developmental, duration: 18 days, gavage, F, Body Weight: No alterations in maternal body weight or gestational weight gain + Hepatic: Increase in dam liver weight at ?0.83 mg/kg/day) was 2 mg/kg-day. The NOAEL (Mus musculus; short-term, duration: 7 days, gavage, M, Hepatic: Hepatocellular hypertrophy, steatosis, and increased hepatic triglyceride levels) was 10 mg/kg-day, the LOAEL (Mus musculus; short-term, duration: 14 days, diet, M/F, CD1, Death: 100% mortality before day 14) was 54 mg/kg-day and the NOAEL (Mus musculus; short-term, duration: 14 days, diet, M/F, CD1, Hepatic: 50-70% increase in absolute liver weight at ?0.5 mg/kg/day) was 5.3 mg/kg-day. The LOAEL (Mus musculus; [5]) was 5 mg/kg-day, the NOAEL (Mus musculus; [5]) was 1 mg/kg-day and the LOAEL (Mus musculus; short-term, duration: 14 days, gavage, M, BALB/c, Immunotoxicological: Decreases in the percentages of F4/80+ and CD49b+ cells in the spleen / no alteration in the response of splenic …) was 1 mg/kg-day. It also gave an NOAEL (Mus musculus; subchronic, duration: 90 days, gavage, M, Hepatic: 33% decrease in serum cholesterol) of 0.5 mg/kg-day, an LOAEL (Mus musculus; [6]) of 0.5 mg/kg-day and an NOAEL (Mus musculus; [6]) of 0.2 mg/kg-day. It also gave an NOAEL (Rattus norvegicus [1]; acute, duration: 4 hours, inhalation, nose only, M, CD, Body Weight: Reduced 18% 5 days after exposure + Hepatic: 28% increase in absolute liver weight 5 days after exposure to ?67 mg/m3 + …) of 67 mg/m3, an LOAEL (Rattus norvegicus [1]; acute, duration: 4 hours, inhalation, nose only, M, CD, Body Weight: Reduced 18% 5 days after exposure + Respiratory: Lung noise / labored breathing during and after exposure) of 590 mg/m3 and an LOAEL (Rattus norvegicus [1]; acute, duration: 4 hours, inhalation, nose only, M, CD, Death: 14-day LC50) of 820 mg/m3. The LOAEL (Rattus norvegicus [1]; developmental, duration: 20 days, oral, gavage, M/F, Sprague-Dawley, Body Weight: Reduced maternal body weight / approximately 33% on GD 7 and 10% on GD 20 + Developmental: Decreased birth weight in female …) was 5 mg/kg-day, the LOAEL (Rattus norvegicus [1]; [7]) was 3 mg/kg-day and the NOAEL (Rattus norvegicus [1]; [7]) was 1 mg/kg-day. The NOAEL (Rattus norvegicus [1]; short-term, duration: 14 days, oral, gavage, M, Sprague-Dawley, Hepatic: Decreased HDL levels at ?1 mg/kg/day) was 5 mg/kg-day, the NOAEL (Rattus norvegicus [1]; short-term, duration: 14 days, oral, gavage, M, Sprague-Dawley, Hepatic: Hepatocellular vacuolation and lipid accumulation at 5 mg/kg/day) was 5 mg/kg-day and the LOAEL (Rattus norvegicus [1]; short-term, duration: 14 days, oral, gavage, M, Sprague-Dawley, Immunotoxicological: 24% increase in relative thymus weight at 1 mg/kg/day / 20% decrease in thymus weight at 3 or 5 mg/kg/day, increases …) was 1 mg/kg-day. It also gave an LOAEL (Rattus norvegicus [1]; [8]) of 5 mg/kg-day, an NOAEL (Rattus norvegicus [1]; [8]) of 3 mg/kg-day and an LOAEL (Rattus norvegicus [1]; [9]) of 1 mg/kg-day. The NOAEL (Rattus norvegicus [1]; [9]) was 0.2 mg/kg-day, the LOAEL (Rattus norvegicus [1]; [10]) was 5 mg/kg-day and the NOAEL (Rattus norvegicus [1]; [10]) was 3 mg/kg-day. The LOAEL (Rattus norvegicus [1]; [11]) was 5 mg/kg-day, the NOAEL (Rattus norvegicus [1]; [11]) was 3 mg/kg-day and the LOAEL (Rattus norvegicus [1]; short-term, duration: 14 days, oral, gavage, Wistar, Body Weight: Decreased body weight / magnitude of effect was not reported + Endocrine: Decreased androstenedione and testosterone …) was 5 mg/kg-day. For the same compound, the LOEL (Rattus norvegicus [2]; Clinical chemistry_Alanine aminotransferase) was 3.12 mg/kg-day, the LOEL (Rattus norvegicus [2]; Clinical chemistry_Albumin) was 1.56 mg/kg-day and the LOEL (Rattus norvegicus [2]; Clinical chemistry_Albumin/globulin ratio) was 1.56 mg/kg-day. It also gave an LOEL (Rattus norvegicus [2]; Clinical chemistry_Alkaline phosphatase) of 3.12 mg/kg-day, an NOEL (Rattus norvegicus [2]; Clinical chemistry_Aspartate aminotransferase) of 25 mg/kg-day and an NOEL (Rattus norvegicus [2]; Clinical chemistry_Cholesterol) of 25 mg/kg-day. It also gave an NOEL (Rattus norvegicus [2]; Clinical chemistry_Creatinine kinase) of 25 mg/kg-day, an LOEL (Rattus norvegicus [2]; Clinical chemistry_Direct bilirubin) of 6.25 mg/kg-day and an LOEL (Rattus norvegicus [2]; Clinical chemistry_Free thyroxine) of 3.12 mg/kg-day. It also gave an LOEL (Rattus norvegicus [2]; Clinical chemistry_Globulin) of 1.56 mg/kg-day, an NOEL (Rattus norvegicus [2]; Clinical chemistry_Indirect bilirubin) of 25 mg/kg-day and an LOEL (Rattus norvegicus [2]; Clinical chemistry_Sorbitol dehydrogenase) of 1.56 mg/kg-day. For the same compound, the LOEL (Rattus norvegicus [2]; Clinical chemistry_Testosterone) was 1.56 mg/kg-day, the NOEL (Rattus norvegicus [2]; Clinical chemistry_Thyroid stimulating hormone) was 25 mg/kg-day and the LOEL (Rattus norvegicus [2]; Clinical chemistry_Total bile acids) was 3.12 mg/kg-day. It also gave an NOEL (Rattus norvegicus [2]; Clinical chemistry_Total bilirubin) of 25 mg/kg-day, an LOEL (Rattus norvegicus [2]; Clinical chemistry_Total protein) of 1.56 mg/kg-day and an LOEL (Rattus norvegicus [2]; Clinical chemistry_Total thyroxine) of 3.12 mg/kg-day. It also gave an NOEL (Rattus norvegicus [2]; Clinical chemistry_Total triiodothyronine) of 25 mg/kg-day, an NOEL (Rattus norvegicus [2]; Clinical chemistry_Triglycerides) of 25 mg/kg-day and an LOEL (Rattus norvegicus [2]; Gene expression_Acox1) of 1.56 mg/kg-day. The LOEL (Rattus norvegicus [2]; Gene expression_Cyp2b1) was 1.56 mg/kg-day, the LOEL (Rattus norvegicus [2]; Gene expression_Cyp2b2) was 1.56 mg/kg-day and the LOEL (Rattus norvegicus [2]; Gene expression_Cyp4a1) was 1.56 mg/kg-day. The NOEL (Rattus norvegicus [2]; Hematology_Erythrocytes) was 25 mg/kg-day, the NOEL (Rattus norvegicus [2]; Hematology_Hematocrit) was 25 mg/kg-day and the NOEL (Rattus norvegicus [2]; Hematology_Hemoglobin) was 25 mg/kg-day. It also gave an NOEL (Rattus norvegicus [2]; Hematology_Mean corpuscular hemoglobin concentration) of 25 mg/kg-day, an NOEL (Rattus norvegicus [2]; Hematology_Mean corpuscular volume) of 25 mg/kg-day and an NOEL (Rattus norvegicus [2]; Hematology_Platelets) of 25 mg/kg-day. It also gave an NOEL (Rattus norvegicus [2]; Hematology_Reticulocytes) of 25 mg/kg-day, an LOEL (Rattus norvegicus [2]; Nonneoplastic effects_Bone marrow - Hypocellularity) of 12.5 mg/kg-day and an LOEL (Rattus norvegicus [2]; Nonneoplastic effects_Forestomach - Epithelium, hyperplasia) of 12.5 mg/kg-day. It also gave an NOEL (Rattus norvegicus [2]; Nonneoplastic effects_Kidney - Nephropathy, chronic progressive) of 25 mg/kg-day, an LOEL (Rattus norvegicus [2]; Nonneoplastic effects_Liver - Hepatocyte, Necrosis) of 12.5 mg/kg-day and an LOEL (Rattus norvegicus [2]; Nonneoplastic effects_Liver - Hepatocyte, cytoplasmic alteration) of 1.56 mg/kg-day. For the same compound, the LOEL (Rattus norvegicus [2]; Nonneoplastic effects_Liver - Hepatocyte, hypertrophy) was 6.25 mg/kg-day, the NOEL (Rattus norvegicus [2]; Nonneoplastic effects_Liver - Hepatocyte, vacuolization cytoplasmic) was 25 mg/kg-day and the LOEL (Rattus norvegicus [2]; Nonneoplastic effects_Lymph nodes - Mandibular, atrophy) was 12.5 mg/kg-day. It also gave an LOEL (Rattus norvegicus [2]; Nonneoplastic effects_Lymph nodes - Mesenteric, atrophy) of 12.5 mg/kg-day, an LOEL (Rattus norvegicus [2]; Nonneoplastic effects_Nose - Olfactory epithelium, degeneration) of 25 mg/kg-day and an NOEL (Rattus norvegicus [2]; Nonneoplastic effects_Nose - Olfactory epithelium, hyperplasia) of 25 mg/kg-day. The NOEL (Rattus norvegicus [2]; Nonneoplastic effects_Nose - Olfactory epithelium, inflammation, suppurative) was 25 mg/kg-day, the NOEL (Rattus norvegicus [2]; Nonneoplastic effects_Nose - Respiratory epithelium, hyperplasia) was 25 mg/kg-day and the NOEL (Rattus norvegicus [2]; Nonneoplastic effects_Nose - Respiratory epithelium, inflammation, chronic active) was 25 mg/kg-day. For the same compound, the LOEL (Rattus norvegicus [2]; Nonneoplastic effects_Spleen - Atrophy) was 12.5 mg/kg-day, the NOEL (Rattus norvegicus [2]; Nonneoplastic effects_Spleen - Extramedullary hematopoiesis, increased) was 25 mg/kg-day and the LOEL (Rattus norvegicus [2]; Nonneoplastic effects_Thymus - Atrophy) was 12.5 mg/kg-day. For the same compound, the NOEL (Rattus norvegicus [2]; Nonneoplastic effects_Thymus - Lymphocyte, apoptosis) was 25 mg/kg-day and the NOEL (Rattus norvegicus [2]; Nonneoplastic effects_Thyroid gland - Follicular cell hypertrophy) was 25 mg/kg-day.

From EPA's ToxValDB 9.5
